Like-named read-outs stand apart in the source and are kept apart here.

As usually defined, the melting point is the temperature of the solid-liquid transition.

For series [1], the system named is HT-29 colorectal cancer cells. Description: MTT anti-proliferative assay against HT-29 cells. In kind it is cell-based, human. The settings on record: for Selectivity Index: SI = IC50Fibroblast/IC50HT-29cells; for Cytotoxic activity category against HT-29: classified by HT-29 IC50. Here is the method: (§1) The toxicity of the thirty-six compounds was determined in vitro by means of the MTT assay. Doxorubicin, a drug widely used to treat different types of cancer, was employed as a positive control, whereas the solvent (DMSO) was used as negative control.
(§2) Test compounds were dissolved in DMSO to obtain stock solutions that were maintained as small aliquots at −20 °C. At time of drug addition, an aliquot was thawed and diluted to obtain the desired final maximum test concentration of 100 μM, with complete medium. The final percentage of DMSO in the wells was less than 1% (v/v). […] Anti-Proliferative Assay
(§3) Doxorubicin, a drug widely used to treat different types of cancer, was used as a positive control. After 48 h, the medium was removed and cells were incubated with MTT solution (0.25 mg/mL). Four hours later, the medium was carefully aspired and formazan crystals were dissolved in DMSO (100 μL). The OD550 was measured using a plate reader (Multiskan Go, Thermo Scientific, Waltham, MA, USA). […] The selectivity index (SI), was calculated as a ratio of IC50Fibroblast/IC50HT-29cells.
(§4) The results are expressed as the mean of triplicate measurements in at least two independent experiments.
(In general: Formazan colour is commonly taken as a measure of viable cells.)

For another series, the system named is fibroblasts PCS-201-012. Put plainly: MTT cytotoxicity assay against normal dermal fibroblasts. In kind it is cell-based. The conditions noted are these: Fibroblast, value with 95% confidence interval, read-out: PCS-201-012 IC50 μM (95% CI). Here is the method:
as §1, §2, §3, §4

[2] abbreviates: Homo sapiens, HT-29, 48 h, MTT, 48 h, 0–100 µM, value with 95% confidence interval, read-out: HT-29 IC50 μM (95% CI).
Setting [3] is: Homo sapiens, HT-29, −logIC50 against HT-29, CoMFA training and test sets, read-out: pIC50 Experimental (converted).

On to `CC1=C(N)C(=O)c2ccccc2C1=O` [Compound 3a, 2-Amino-3-methylnaphthalene-1,4-dione], for which, in series [1] (setting [2]), the IC50 is more than 100 µM.

In turn, `O=C1c2ccccc2C(=O)c2oc(-c3ccccc3)cc21` [Compound 4k, 2-Phenylnaphtho[2,3-b]furan-4,9-dione] registered a melting point of 220 °C. Also, the IC50 in series [1] (setting [2]) was more than 10 µM.

For `CCc1noc(-c2cc3c(s2)C(=O)c2ccccc2C3=O)n1` [Compound 9, 2-(3-ethyl-1,2,4-oxadiazol-5-yl)naphtho[2,3-b]thiophene-4,9-dione], the IC50 with fibroblasts PCS-201-012 is 1.03 µM; in series [1] (setting [2]), 3.07 µM; in series [1] (setting [3]), 3.07 µM. In series [1], the “Selectivity Index” value is 0.34.

`C=CC1(C)CC2=C(O1)c1ccccc1C(=O)C2=O` (centres unmarked) [Compound 4t, 2-Ethenyl-2-methyl-2,3-dihydronaphtho[1,2-b]furan-4,5-dione] yielded a melting point of 150 °C. In addition, in the series on fibroblasts PCS-201-012, the IC50 was 19.7 µM. The IC50 in series [1] (setting [2]) worked out at 88.1 µM. Moreover, in series [1], the “Selectivity Index” value is 0.22.

Consider `O=C1c2ccccc2C(=O)c2[nH]ccc21` [Compound 2a, 1H-Benzo[f]indole-4,9-dione], for which the melting point was 281 to 283 °C. Further, in series [1] (setting [2]), the IC50 was more than 100 µM.

`Cc1cc2c(o1)-c1ccccc1C(=O)C2=O` [Compound 4g, 2-Methylnaphtho[1,2-b]furan-4,5-dione]: the melting point turned out to be 124 °C. The IC50 with fibroblasts PCS-201-012 is 1.93 µM. In addition, the IC50 in series [1] (setting [2]) turned out to be 8.36 µM. Also, in series [1] (setting [3]), the IC50 was 8.36 µM. Also, in series [1], the “Selectivity Index” value is reported as 0.23 and the “Cytotoxic activity category against HT-29” value (shortened to “Cytotoxic activity category”) is reported as “highly active”.

In turn, `CC1(C)OC2=C(C(=O)C(=O)c3ccccc32)C1(C)C` [Compound 4s, 2,2,3,3-Tetramethyl-2,3-dihydronaphtho[1,2-b]furan-4,5-dione] yielded a melting point of 91 °C. The IC50 in the series on fibroblasts PCS-201-012 amounted to 19.9 µM. For the same molecule, in series [1] (setting [2]), the IC50 amounted to 18.1 µM. For the same molecule, in series [1] (setting [3]), the IC50 was 18.1 µM. Moreover, in series [1], the “Selectivity Index” value is on record as 1.10.

Take `CC12OC1C(=O)c1ccccc1C2=O` (centres unmarked) [Compound 3b, 1a-Methyl-1a,7a-dihydronaphtho[2,3-b]oxirene-2,7-dione]: in series [1] (setting [2]), the IC50 was 57.3 µM.

Consider `C/C=C/C1=C(O)C(=O)c2ccccc2C1=O` [Compound 4a, 2-Hydroxy-3-[(1E)-prop-1-en-1-yl]naphthalene-1,4-dione], for which the IC50 in series [1] (setting [2]) is more than 100 µM.

Turning to `O=C1C(=O)c2ccccc2C2=C1CC(c1ccccc1)O2` (centres unmarked) [Compound 4r, 2-Phenyl-2,3-dihydronaphtho[1,2-b]furan-4,5-dione], the figures for the IC50 (in the series with fibroblasts PCS-201-012; in series [1] (setting [2])) were 8.2 µM and 14.8 µM, respectively. Also, the “Selectivity Index” value in series [1] is recorded as 0.56.

Regarding `NC1=CC(=O)c2ccccc2C1=O` [Compound 2, 2-Aminonaphthalene-1,4-dione], the IC50 in the series with fibroblasts PCS-201-012 is 7.34 µM; in series [1] (Homo sapiens, HT-29, MTT, 48 h, 0–100 µM, value with 95% confidence interval, read-out: HT-29 IC50 μM (95% CI)) it was 24.6 µM; in series [1] (Homo sapiens, −logIC50 against HT-29, CoMFA training and test sets, read-out: pIC50 Experimental (converted)), 24.6 µM. Besides, the “Selectivity Index” value in series [1] was found to be 0.30.

With `CC(=O)c1cc2c(o1)C(=O)c1ccccc1C2=O` [Compound 4m, 2-Acetylnaphtho[2,3-b]furan-4,9-dione], in the series with fibroblasts PCS-201-012, the IC50 worked out at 3.5 µM. The IC50 in series [1] (setting [2]) was 4.61 µM. Besides, in series [1], the “Selectivity Index” value turned out to be 0.76 and the “Cytotoxic activity category” value is given as “highly active”.

As for `O=C1C2=C(OC(c3ccccc3)C2)C(=O)c2ccccc21` (centres unmarked) [Compound 4q, 2-Phenyl-2,3-dihydronaphtho[2,3-b]furan-4,9-dione], the IC50 with fibroblasts PCS-201-012 turned out to be 9.16 µM; in series [1] (setting [2]), 30.2 µM. Besides, in series [1], the “Selectivity Index” value was determined as 0.30.

Regarding `CCN(CC)C(=O)c1cc2c(s1)C(=O)c1c(Cl)cccc1C2=O` [Compound 8, 8-chloro-N,N-diethyl-4,9-dioxo-4,9-dihydronaphtho[2,3-b]thiophene-2-carboxamide], the IC50 in the series with fibroblasts PCS-201-012 is 2.56 µM; in series [1] (setting [2]), 6.89 µM; in series [1] (setting [3]), 6.89 µM. Also, the “Selectivity Index” value in series [1] is 0.37.

As to `O=C(c1cccs1)c1cc2c(s1)C(=O)c1c(O)cccc1C2=O` [Compound 7, 8-hydroxy-2-(thiophen-2-ylcarbonyl)naphtho[2,3-b]thiophene-4,9-dione], the values for the IC50 (in the series on fibroblasts PCS-201-012; in series [1] (setting [2]); in series [1] (setting [3])) were 4.56 µM, 1.73 µM and 1.73 µM, respectively.

`CCCC/C=C/C1=C(O)C(=O)c2ccccc2C1=O` [Compound 4c, 2-[(1E)-Hex-1-en-1-yl]-3-hydroxynaphthalene-1,4-dione]: the melting point amounted to 85 °C. For the same molecule, the IC50 in series [1] (setting [2]) is more than 100 µM.

The molecule `CCCc1[nH]c2c(c1C)C(=O)c1ccccc1C2=O` [Compound 2f, 3-Methyl-2-propyl-1H-benzo[f]indole-4,9-dione] returned a melting point of 266 to 270 °C. For the same molecule, in series [1] (setting [2]), the IC50 is more than 100 µM.

Molecule `Cc1cc2c([nH]1)C(=O)c1ccccc1C2=O` [Compound 2b, 2-Methyl-1H-benzo[f]indole-4,9-dione] gave a melting point of 302 to 304 °C. The IC50 in series [1] (setting [2]) was more than 100 µM.

`CC1=C(Cl)C(=O)c2ccccc2C1=O` [Compound 3c, 2-Chloro-3-methylnaphthalene-1,4-dione] had a melting point of 158 °C. Besides, in the series with fibroblasts PCS-201-012, the IC50 was determined as 9.92 µM. Moreover, the IC50 in series [1] (setting [2]) turned out to be 11 µM. The IC50 in series [1] (setting [3]) was 11 µM. For the same molecule, in series [1], the “Selectivity Index” value is 0.90.

Molecule `CCc1cc2c([nH]1)C(=O)c1ccccc1C2=O` [Compound 2c, 2-Ethyl-1H-benzo[f]indole-4,9-dione] yielded a melting point of 200 to 207 °C. Also, in the series on fibroblasts PCS-201-012, the IC50 came to 79.4 µM. Moreover, in series [1] (setting [2]), the IC50 came to 40.2 µM. Moreover, the IC50 in series [1] (setting [3]) is 40.2 µM. Further, in series [1], the “Cytotoxic activity category” value is “moderately active (moderately active (20 µM < IC50 ≤ 100 µM))”.

In the case of `CCN(CC)C(=O)c1cc2c(o1)C(=O)c1ccccc1C2=O` [Compound 6, N,N-diethyl-4,9-dioxo-4,9-dihydronaphtho[2,3-b]furan-2-carboxamide], the IC50 in the series on fibroblasts PCS-201-012 was 1.49 µM; in series [1] (setting [2]) it was 2.67 µM; in series [1] (setting [3]), 2.67 µM. Besides, in series [1], the “Selectivity Index” value was 0.56. The “Cytotoxic activity category” value in series [1] is “highly active”.

In the case of `COC(=O)c1nc2c(s1)C(=O)c1ccccc1C2=O` [Compound 5c, Methyl 4,9-Dioxo-4,9-dihydronaphtho[2,3-d][1,3]thiazole-2-carboxylate], the values for the IC50 (in the series on fibroblasts PCS-201-012; in series [1] (setting [2]); in series [1] (setting [3])) were 7.26 µM, 13.9 µM and 13.9 µM, respectively. The “Selectivity Index” value in series [1] came out at 0.52.

In the case of `CCCCc1cc2c(o1)C(=O)c1ccccc1C2=O` [Compound 4f, 2-Butylnaphtho[2,3-b]furan-4,9-dione], the IC50 in the series on fibroblasts PCS-201-012 is 10 µM; in series [1] (setting [2]) it was 23.7 to 88.1 µM; in series [1] (setting [3]) it was 21.7 µM; in series [1] (MTT, 48 h, 0–100 µM, value with 95% confidence interval, read-out: HT-29 IC50 μM (95% CI)), 21.7 µM. Further, in series [1], the “Selectivity Index” value amounted to 0.46.

Turning to `COC(=O)C1C2=C(OC1c1ccccc1)C(=O)c1ccccc1C2=O` (centres unmarked) [Compound 4n, Methyl 4,9-Dioxo-2-phenyl-2,3,4,9-tetrahydronaphtho[2,3-b]furan-3-carboxylate], the melting point amounted to 167 °C. For the same molecule, in series [1] (setting [2]), the IC50 was more than 100 µM.

For the molecule `O=C1c2ccccc2C(=O)C2OC12` (centres unmarked) [Compound 1a, 1a,7a-Dihydronaphtho[2,3-b]oxirene-2,7-dione], the IC50 in series [1] (setting [2]) and in series [1] (setting [3]) was 10.8 µM each time.

In the case of `COc1cccc2c1C(=O)c1c(O)c3c(c(O)c1C2=O)C[C@@](O)(C(=O)CO)C[C@@H]3O[C@H]1C[C@H](N)[C@H](O)[C@H](C)O1` [Doxorubicin, reference compound], the IC50 in series [1] (setting [2]) was 1.07 µM.

Consider `Cc1cc2c(o1)C(=O)c1ccccc1C2=O` [Compound 4d, 2-Methylnaphtho[2,3-b]furan-4,9-dione], for which the figures for the IC50 (in the series on fibroblasts PCS-201-012; in series [1] (setting [2]); in series [1] (setting [3])) were 18.5 µM, 17.6 µM and 17.6 µM, respectively. Moreover, the “Selectivity Index” value in series [1] came to 1.05. The “Cytotoxic activity category” value in series [1] is reported as “highly active”.

Turning to `Cc1c(C(C)C)[nH]c2c1C(=O)c1ccccc1C2=O` [Compound 2e, 3-Methyl-2-(propan-2-yl)-1H-benzo[f]indole-4,9-dione], the melting point fell in the range of 245 to 248 °C. The IC50 in series [1] (setting [2]) is more than 100 µM.

In the case of `CCc1cc2c(o1)C(=O)c1ccccc1C2=O` [Compound 4e, 2-Ethylnaphtho[2,3-b]furan-4,9-dione], the IC50 in the series with fibroblasts PCS-201-012 is 20.1 µM; in series [1] (setting [2]) it was 24.9 µM; in series [1] (setting [3]), 24.9 µM. Besides, the “Selectivity Index” value in series [1] was 0.80.

On to `CC/C=C/C1=C(O)C(=O)c2ccccc2C1=O` [Compound 4b, 2-[(1E)-But-1-en-1-yl]-3-hydroxynaphthalene-1,4-dione], for which the melting point was 107 °C. In addition, the IC50 in series [1] (setting [2]) was more than 100 µM.

Source of the values: paper PMC6017957, “Synthesis, Anti-Proliferative Activity Evaluation and 3D-QSAR Study of Naphthoquinone Derivatives as Potential Anti-Colorectal Cancer Agents” (Molecules : A Journal of Synthetic Chemistry and Natural …, 2018).
